According to patent US20230241017A1, “Hydrophilic Degradable Microsphere for Delivering Travoprost” (Occlugel, priority 2020, published 2023):
Marks after values point to notes of the source that are not given here.

What was measured:
[1] = Extemporaneous loading of latanoprost and latanoprostene BUNOD on sterile MS5; format: physicochemical; details: for Drug loading on MS5: extemporaneous loading on freeze-dried e-beam sterilized MS5, 5 min room temperature; for loading efficiencies (%) on MS5: extemporaneous loading on sterile MS5, 5 min room temperature
Protocol: After the sieving step of MS5, 100 μL or 250 μL of pellets were suspended in 5 mL of a solution containing 2.5% (w/v) of mannitol. After homogenization, the pellets of microspheres were recovered, frozen-dried and sterilized by e-beam radiation (25 kilograys).
Latanoprost Loading To the dry and sterile pellets of microspheres (250 μL), 500 μL of latanoprost solution (TRC-L177280-10MG) at 2 mg/mL in acetonitrile/water mixture (70/30) were added. After 5 min of mixing at room temperature under stirring on a tube rotator (=30 rpm), the supernatants were removed for the measurement of unbound latanoprost by RP-HPLC at 210 nm on a C18 column (46×150 mm) using a mobile phase made of acetonitrile/water containing 0.1% TFA (60:40, v/v) at a flow rate of 1 mL/min in the isocratic mode at 25° C. The amount of latanoprost in supernatants was obtained by extrapolation from a standard curve (0.5 to 20 μg/mL). The loaded dose was calculated by subtracting the final amount of latanoprost from the initial amount. The latanoprost loading for 1 mL of beads was obtained by multiplying by 4 the quantity loaded on 250 μL of MS.
Latanoprostene BUNOD is a nitric oxide (NO)-donating prostaglandin F2a analogue approved for the reduction of intraocular pressure in patients with open-angle glaucoma or ocular hypertension. To the dry and sterile pellets of microspheres (100 μL), 700 μL of latanoprotene BUNOD (TRC-L177335-2.5MG) solution at 1 mg/mL in acetonitrile/water mixture (70/30%) were added. After 5 min of mixing at room temperature under stirring on a tube rotator (=30 rpm), the supernatants were removed for the measurement of unbound drug by RP-HPLC at 210 nm on a C18 column (46×150 mm) using a mobile phase made of acetonitrile/water containing 0.1% TFA (60:40, v/v) at a flow rate of 1 mL/min in the isocratic mode at 25° C. The amount of latanoprotene BUNOD in supernatants was obtained by extrapolation from a standard curve (0.25 to 25 μg/mL). The loaded dose was calculated by subtracting the final amount of latanoprotene BUNOD from the initial amount. The latanoprotene BUNOD loading for 1 mL of beads was obtained by multiplying by 10 the quantity loaded on 100 μL of MS.

[2] = In vitro release of latanoprost and latanoprostene BUNOD in PBS after extemporaneous loading on MS5; format: physicochemical; details: for elution after 5 weeks of incubation: loaded on MS5, PBS 37 °C (FIG. 9); for % of prostaglandin analogues release after 10 min in PBS / % of prostaglandin analogues release after 1 day in PBS / % of prostaglandin analogues release after 7 days in PBS / % of prostaglandin analogues release after 18 days in PBS: loaded on sterile MS5, PBS pH 7.4, 37 °C
Protocol: Then, immediately after the loading step, 50 mL of PBS (Sigma P-5368; 10 mM phosphate buffered saline; NaCl 0,136 M; KCl 0,0027 M; pH 7.4) was added to the microspheres loaded with latanoprost or latanoprostene BUNOD for the in vitro drug release (37° C., 150 rpm). The medium was completely renewed after each sample collection (10 min, 2 h, 24 h and every 3-4 days during 5 weeks). The amounts of prostaglandin analogues in PBS supernatants were determined by RP-HPLC at 210 nm for latanoprost and latanoprostene BUNOD on a C18 column (46×150 mm) using a mobile phase made of acetonitrile/water containing 0.1% TFA (60:40, v/v) at a flow rate of 1 mL/min in the isocratic mode at 25° C. The results are summarized in Table 7 and in FIG. 9 for each drug.

[3] = pubchem.ncbi.nlm.nih.gov; cited from earlier work
[4] = In vitro release of travoprost in PBS after extemporaneous loading; format: physicochemical; details: from MS5 after extemporaneous loading; PBS 37 °C (FIG. 7)
Protocol: Then, PBS (50 mL) was added to the microspheres loaded with travoprost for the in vitro drug release experiment (37° C., 150 rpm). The medium was completely renewed after each sample collection. The amounts of travoprost in PBS supernatants were determined by RP-HPLC at 222 nm on a C18 column (46×150 mm) using a mobile phase made of acetonitrile/water containing 0.1% TFA (60:40, v/v) at a flow rate of 1 mL/min in the isocratic mode at 25° C.

Row | Drug loading on MS5 [1] | loading efficiencies (%) on MS5 [1] | elution after 5 weeks of incubation [2] | % of prostaglandin analogues release after 10 min in PBS [2] | % of prostaglandin analogues release after 1 day in PBS [2] | % of prostaglandin analogues release after 7 days in PBS [2] | % of prostaglandin analogues release after 18 days in PBS [2] | amount of drug loaded on the degradable microsphere MS5 ([1]; extemporaneous loading on sterile MS5) | duration of sustained travoprost release [4] | initial burst release of travoprost [4] | Structure (SMILES) | Partition coefficient P (Log P) of the prostaglandin analogues [3]
1 | 3.83 ± 0.07 mg/mL | (98%)** | practically complete | 8.7 ± 0.5% | 42.3 ± 10% | 59.7 ± 11.1% | 77.5 ± 11.9% |  |  |  | CC(C)OC(=O)CCC/C=C\C[C@@H]1[C@@H](CC[C@@H](O)CCc2ccccc2)[C@H](O)C[C@@H]1O [Latanoprost] | 
2 | 6.58 ± 0.1 mg/mL | (94%) | practically complete | 7.04 ± 2.2% | 32.4 ± 4.1% | 45.2 ± 4.5% | 60 ± 6.2% | at least 6.5 mg |  |  | O=C(CCC/C=C\C[C@@H]1[C@@H](CC[C@@H](O)CCc2ccccc2)[C@H](O)C[C@@H]1O)OCCCCO[N+](=O)[O-] [Latanoprostene BUNOD] | 3.79-3.94
3 |  |  |  |  |  |  |  |  | at least two months | 3.5% | CC(C)OC(=O)CCC/C=C\C[C@@H]1[C@@H](/C=C/[C@@H](O)COc2cccc(C(F)(F)F)c2)[C@H](O)C[C@@H]1O [travoprost] | 
